Reference: publication PMC1257591, “In Vitro Inhibition of Human Hepatic and cDNA-Expressed Sulfotransferase Activity with 3-Hydroxybenzo[a]pyrene by Polychlorobiphenylols” (Environmental Health Perspectives, 2005)
Where “and” joins values, the source holds several entries; their conditions need not be identical. Identical values can stand only once.

Columns and labels:
SULT1A3 [1] = tested on: SULT1A3; design: method as in Ma et al. 2003; details: ref Ma et al. 2003; cited from earlier work
SULT1E1 [2] = tested on: SULT1E1; design: method as in Ma et al. 2003; details: ref Ma et al. 2003; cited from earlier work
SULT1A1 = tested on: SULT1A1; design: method as in Ma et al. 2003; details: ref Ma et al. 2003; cited from earlier work
[3] = molecular target: HL cytosol sulfotransferase (Homo sapiens, UniProt P50225); test: Kinetics of 3-OH-BaP sulfonation by human liver cytosol (fluorimetric assay of BaP-3-SO4 formation); type: biochemical
Chain of HL cytosol sulfotransferase (P50225 whole entry): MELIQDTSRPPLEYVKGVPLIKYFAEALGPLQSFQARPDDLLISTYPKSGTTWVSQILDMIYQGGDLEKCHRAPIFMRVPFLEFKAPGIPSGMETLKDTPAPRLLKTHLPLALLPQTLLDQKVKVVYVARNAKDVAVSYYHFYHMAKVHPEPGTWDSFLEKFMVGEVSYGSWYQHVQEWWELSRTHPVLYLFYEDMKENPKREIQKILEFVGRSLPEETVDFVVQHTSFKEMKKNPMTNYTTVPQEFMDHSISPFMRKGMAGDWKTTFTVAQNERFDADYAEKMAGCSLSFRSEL
Description: F.P. Guengerich (Vanderbilt University) kindly donated the samples of human liver, which were procured from organ donors ([Guengerich 1995]). We prepared liver cytosolic fractions from four livers by standard methods and stored aliquots at −80°C until use ([Wang et al. 2004]). We used three or four of these cytosol fractions in each experiment.
(§1) We determined SULT activity with 3-OH-BaP as substrate by a fluorimetric assay of BaP-3-SO4 product formation, as described previously ([Wang et al. 2004]). […] Duplicate tubes were prepared for each incubation condition. We examined the kinetics of sulfonation in three liver cytosol fractions by systematically varying the concentration of 3-OH-BaP or PAPS. When the variable substrate was 3-OH-BaP, we used 12 concentrations in the range from 0.035 to 2.00 μM, and the concentration of PAPS was kept constant at 10 μM. When we varied PAPS, we used 7 concentrations from 0.157 to 10.0 μM and kept the concentration of 3-OH-BaP constant at 0.100 μM.
(§2) We calculated the enzyme kinetic parameters from studies with variable concentrations of 3-OH-BaP using nonlinear regression analysis and GraphPad 4.0 software (GraphPad Software, San Diego, CA). We selected the built-in Michaelis-Menten equation for most analyses. Where we found evidence of 3-OH-BaP substrate inhibition, we fit the data into an equation derived from a two-substrate model ([Zhang et al. 1998]): […]
(§3) This equation denoted the constant for binding of the first substrate (S) molecule as Km and the second substrate molecule as Ki. V1 is the maximum rate for the noninhibitory substrate concentration range, and V2 is the minimum rate in the inhibitory substrate concentration range

SULT1A1*1 = molecular target: T1, SULT1A1*1 (Homo sapiens, UniProt P50225); test: Kinetics of 3-OH-BaP sulfonation by partially purified cDNA-expressed SULT1A1*1; type: biochemical
T1 construct: made in house; host or cells: Escherichia coli
Text: (§4) The expression of human SULT1A1*1, SULT1A3, SULT1B1, and SULT1E1 in Escherichia coli has been described previously ([Dajani et al. 1998]; [Wang et al. 1998]). We grew E. coli cells containing the respective sulfotransferase genes as described previously ([Falany et al. 1990], [1994]), and prepared 100,000g supernatant fractions for use in inhibition studies and for partial purification of the SULT enzymes. We purchased expressed SULT1A1*2 cytosolic extract from PanVera (Madison, WI) and used it as supplied.
(§5) The 100,000g supernatant fractions of SULT1A1*1, SULT1A3, SULT1B1, and SULT1E1 were partially purified by chromatographic methods ([Falany et al. 1990], [1994]). […] We analyzed active fractions by SDS-PAGE ([Laemmli 1970]) to assess the purity of each SULT enzyme. We stained the gels with Coomassie R-250 reagent and determined the percentage of protein present as each respective SULT enzyme by scanning densitometry.
(§6) We determined SULT activity with 3-OH-BaP as substrate by a fluorimetric assay of BaP-3-SO4 product formation, as described previously ([Wang et al. 2004]). […]
(§7) We determined the kinetic parameters for 3-OH-BaP sulfonation by partially purified preparations of the cDNA-expressed SULT isozymes under incubation conditions similar to those used for liver cytosol. […]

SULT1B1 = molecular target: T2, SULT1B1 (Homo sapiens, UniProt O43704); test: Kinetics of 3-OH-BaP sulfonation by partially purified cDNA-expressed SULT1B1; type: biochemical; details: concentration range up to 5 μM
T2 construct: made in house; host or cells: Escherichia coli
T2 sequence (O43704 whole entry): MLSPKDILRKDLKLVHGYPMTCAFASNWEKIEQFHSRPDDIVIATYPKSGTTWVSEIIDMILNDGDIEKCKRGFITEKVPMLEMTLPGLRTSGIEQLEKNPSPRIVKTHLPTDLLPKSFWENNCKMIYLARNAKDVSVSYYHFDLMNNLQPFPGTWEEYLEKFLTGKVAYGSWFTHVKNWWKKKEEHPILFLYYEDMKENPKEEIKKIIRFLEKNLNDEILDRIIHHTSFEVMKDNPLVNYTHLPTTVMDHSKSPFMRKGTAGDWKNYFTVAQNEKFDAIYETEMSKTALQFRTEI
Text: as §4, §5, §6, §7

SULT1A1*2 = molecular target: T3, SULT1A1*2 (Homo sapiens, UniProt P50225, R213H); test: Kinetics of 3-OH-BaP sulfonation by expressed SULT1A1*2; type: biochemical; details: expressed SULT1A1*2
T3 construct: purchased PanVera (Madison, WI); host or cells: Sf-9
T3 sequence (P50225 whole entry R213H): as the sequence (P50225 whole entry) above, with R213H counted along it
Text: as §4, §1
We determined the kinetic parameters for 3-OH-BaP sulfonation by partially purified preparations of the cDNA-expressed SULT isozymes under incubation conditions similar to those used for liver cytosol. For SULT1A1*1 and -1A1*2, we used seven substrate concentrations in the range from 5 to 100 nM; for SULT1E1 we used […] 3-OH-BaP concentrations from 15.6 to 1,000 nM; and for SULT1A3 and 1B1 we used seven concentrations of 3-OH-BaP from 0.25 to 5.0 μM.
as §2, §3

SULT1E1 [4] = molecular target: T4, SULT1E1 (Homo sapiens, UniProt P49888); test: Kinetics of 3-OH-BaP sulfonation by partially purified cDNA-expressed SULT1E1; type: biochemical
T4 construct: made in house; host or cells: Escherichia coli
T4 sequence (P49888 1-294): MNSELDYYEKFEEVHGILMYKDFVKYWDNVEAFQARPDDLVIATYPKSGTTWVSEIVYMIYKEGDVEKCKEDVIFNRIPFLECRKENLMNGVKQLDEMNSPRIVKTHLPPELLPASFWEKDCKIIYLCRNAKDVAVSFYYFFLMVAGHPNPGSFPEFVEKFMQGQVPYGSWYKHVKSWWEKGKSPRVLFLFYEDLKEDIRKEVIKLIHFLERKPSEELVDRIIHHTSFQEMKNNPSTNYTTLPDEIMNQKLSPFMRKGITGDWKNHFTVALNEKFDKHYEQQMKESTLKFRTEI
Text: as §4, §5, §6, §7

SULT1A3 [5] = molecular target: T5, SULT1A3 (Homo sapiens, UniProt P0DMM9); test: Kinetics of 3-OH-BaP sulfonation by partially purified cDNA-expressed SULT1A3; type: biochemical; details: concentration range up to 5 μM
T5 construct: made in house; host or cells: Escherichia coli
T5 sequence (P0DMM9 whole entry): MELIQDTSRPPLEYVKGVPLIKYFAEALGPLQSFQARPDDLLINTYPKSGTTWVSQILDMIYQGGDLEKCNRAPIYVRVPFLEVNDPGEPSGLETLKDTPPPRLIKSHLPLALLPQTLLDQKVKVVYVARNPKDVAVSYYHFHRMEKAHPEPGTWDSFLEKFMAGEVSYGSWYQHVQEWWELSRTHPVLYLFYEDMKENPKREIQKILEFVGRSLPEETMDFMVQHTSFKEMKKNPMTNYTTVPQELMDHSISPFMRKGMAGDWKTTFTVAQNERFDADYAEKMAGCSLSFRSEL
Text: as §4, §5, §6, §7

[6] = molecular target: HL cytosol 3-OH-BaP sulfotransferase (Homo sapiens, UniProt P50225); test: Kinetics of 3-OH-BaP sulfotransferase inhibition by 4′-OH-CB112 in HL cytosol; type: biochemical; details: 0 μM B5, mean ± SD n = 3
Chain of HL cytosol 3-OH-BaP sulfotransferase (P50225 whole entry): as the sequence (P50225 whole entry) above
Description: To study the type of inhibition produced by OH-PCBs, we used 4′-OH-CB112 (B5) as a model inhibitor. We prepared four sets of assay tubes containing HL cytosol and varying amounts of 3-OH-BaP from 35 to 150 nM: one set (control) contained no 4′-OH-CB112; the other sets contained 0.25 μM, 0.5 μM, or 1.0 μM 4′-OH-CB112.
We calculated the effects of OH-PCBs on 3-OH-BaP SULT activity as percentage inhibition compared with the controls without an inhibitor. We obtained IC50 values by fitting log OH-PCB concentration and percent control activity to a sigmoidal curve. We examined the relationships between IC50 and physicochemical properties of the OH-PCBs by linear correlation analysis. We calculated the inhibitory constant (Ki) from the kinetic studies with 4′-OH-CB112 by means of Dixon plots and plots of Km/Vmax against inhibitor concentration ([Cornish-Bowden 1995]).

[7] = HL 2 cytosol (heterozygous SULT1A1*1/*2)
[8] = HL 3 cytosol (homozygous SULT1A1*2)

| Structure (SMILES) | Km (SULT1A3 [1]) [µM] | Km (SULT1E1 [2]) [µM] | Km (SULT1A1) [µM] | V1 ([3]; HL 1 cytosol (homozygous SULT1A1*1), maximum rate, noninhibitory substrate range) [pmol/min/mg protein] | V2 ([3]; HL 1 cytosol (homozygous SULT1A1*1), minimum rate, inhibitory substrate range) [pmol/min/mg protein] | V1 [3, 7] [pmol/min/mg protein] | V2 [3, 7] [pmol/min/mg protein] | V1 [3, 8] | V2 [3, 8] [pmol/min/mg protein] | 3-OH-BaP concentration resulting in a decrease in activity (substrate inhibition) ([3]; HL cytosol) [µM] | V1 ([3]; HL cytosol, mean ± SD of three livers) [pmol/min/mg protein] | 3-OH-BaP concentration showing substrate inhibition (SULT1A1*1) [µM] | substrate inhibition (SULT1B1) | V1 (SULT1A1*2) | V2 (SULT1A1*2) [pmol/min/mg protein] | Ki (SULT1A1*2; substrate inhibition) [nM] | 3-OH-BaP concentration showing substrate inhibition (SULT1E1 [4]) [µM] | substrate inhibition (SULT1A3 [5]) | Vmax (3-OH-BaP sulfotransferase activity) [6] [B pmol/min/mg protein] |
| --- | --- | --- | --- | --- | --- | --- | --- | --- | --- | --- | --- | --- | --- | --- | --- | --- | --- | --- | --- |
| Oc1ccc2ccc3cccc4ccc1c2c34 [1-hydroxypyrene] | 0.8 | 0.021 | 0.008 |  |  |  |  |  |  |  |  |  |  |  |  |  |  |  |  |
| Oc1ccc2ccc3c4ccccc4cc4ccc1c2c43 [Compound 3-OH-BaP, 3-hydroxybenzo[a]pyrene] |  |  |  | 121 | 2 | 93.0 | 38.50 | 94 pmol/min/mg protein and 94.4 pmol/min/mg protein | 31.0 | > 0.15 | 102 ± 15.8 | > 0.15 | did not exhibit substrate inhibition | 4,400 pmol/min/mg protein | 290 | 160 | > 0.15 | did not exhibit substrate inhibition | 69.1 ± 8.0 |
